Measured values published in PubChem BioAssay AID330 (DTP/NCI, 2004).
Several values for one entry are separate records, joined by “and”; a condition that tells them apart may be missing. Identical values can stand only once. Inconclusive results and toxic doses are left out.

Tested on: P388 leukemia ip, CD2F1 mice, survival T/C
Assay: NCI In Vivo Anticancer Drug Screen. Data for tumor model P388 Leukemia (intraperitoneal) in CD2F1 (CDF1) mice
Conditions: endpoint: median survival time, higher = longer survival
Outline: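 Mice carrying the transplanted tumor received test compound or vehicle. Survival was recorded in each group, and the value is the treated-group measurement divided by that of the vehicle-treated control group.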

[1] = dose: 50.0 mg/kg/injection, schedule: Q01DX009 (ip), vehicle: saline with Tween-80
[2] = dose: 100.0 mg/kg/injection, schedule: Q01DX009 (ip), vehicle: saline with Tween-80
[3] = dose: 200.0 mg/kg/injection, schedule: Q01DX009 (ip), vehicle: saline with Tween-80
[4] = dose: 50.0 mg/kg/injection, schedule: Q01DX009 (ip), vehicle: Klucel (hydroxypropylcellulose) (HPC)
[5] = dose: 100.0 mg/kg/injection, schedule: Q01DX009 (ip), vehicle: Klucel (hydroxypropylcellulose) (HPC)
[6] = dose: 200.0 mg/kg/injection, schedule: Q01DX009 (ip), vehicle: Klucel (hydroxypropylcellulose) (HPC)
[7] = dose: 50.0 mg/kg/injection, schedule: Q01DX005 (ip), vehicle: Klucel (hydroxypropylcellulose) (HPC)
[8] = dose: 100.0 mg/kg/injection, schedule: Q01DX005 (ip), vehicle: Klucel (hydroxypropylcellulose) (HPC)
[9] = dose: 200.0 mg/kg/injection, schedule: Q01DX005 (ip), vehicle: Klucel (hydroxypropylcellulose) (HPC)
[10] = dose: 12.5 mg/kg/injection, schedule: Q04DX003 (ip), vehicle: saline
[11] = dose: 25.0 mg/kg/injection, schedule: Q04DX003 (ip), vehicle: saline

Q: For `O=C(Nc1cc(C(F)(F)F)ccc1Cl)n1nc(Cl)c2ccc([N+](=O)[O-])cc21`, which T/C [1] is on record?
A: 102 % of control

Q: What about the T/C [2] of the same compound?
A: 104 % of control

Q: What about the T/C [3] of the same compound?
A: 95 % of control

Q: How did the T/C [4] turn out when `CSC(=NCCCCCCCCN=C(NC#N)SC)NC#N` was run?
A: 94 % of control

Q: What about the T/C [5] of the same compound?
A: 102 % of control

Q: What about the T/C [6] of the same compound?
A: 95 % of control

Q: For `C=C(C)C1CCC(C)CC(=O)C1` (centres undefined), which T/C (dose: 100.0 mg/kg/injection, schedule: Q04DX003 (ip), vehicle: saline + Tween-80 + alcohol) is on record?
A: 100 % of control

Q: And the T/C (dose: 200.0 mg/kg/injection, schedule: Q04DX003 (ip), vehicle: saline + Tween-80 + alcohol)?
A: 91 % of control

Q: What about the T/C (dose: 400.0 mg/kg/injection, schedule: Q04DX003 (ip), vehicle: saline + Tween-80 + alcohol) of the same compound?
A: 91 % of control

Q: What does the source list for `COC(=O)c1n[nH]c(C(C)C)c1N=NN(C)C`?
A: T/C (dose: 6.25 mg/kg/injection, schedule: Q01DX009 (ip), vehicle: saline): 107 % of control and 113 % of control; T/C (dose: 12.5 mg/kg/injection, schedule: Q01DX009 (ip), vehicle: saline): 116 % of control and 122 % of control

Q: `Nc1ccc2c(c1N)C(=O)c1ccccc1C2=O` was tested. Which T/C [7] did it give?
A: 101 % of control

Q: And the T/C [8]?
A: 100 % of control

Q: And the T/C [9]?
A: 100 % of control

Q: Which T/C [1] does the source give for `O=C1C2(CC3C=CC2C3)C(=O)C12CC1C=CC2C1` (centres undefined) here?
A: 102 % of control

Q: And the T/C [2]?
A: 100 % of control

Q: And the T/C [3]?
A: 103 % of control

Q: `N#CC1(C#N)C(C#N)(C#N)C12CCCCCC2` was tested. Which T/C (dose: 12.5 mg/kg/injection, schedule: Q04DX003 (ip), vehicle: Klucel (hydroxypropylcellulose) (HPC)) did it give?
A: 106 % of control

Q: And the T/C (dose: 25.0 mg/kg/injection, schedule: Q04DX003 (ip), vehicle: Klucel (hydroxypropylcellulose) (HPC))?
A: 112 % of control

Q: What about the T/C (dose: 50.0 mg/kg/injection, schedule: Q04DX003 (ip), vehicle: Klucel (hydroxypropylcellulose) (HPC)) of the same compound?
A: 95 % of control

Q: With `CNC1C(O)C(OC2C(N)CC(N)C(OC3OC(CN)=CCC3N)C2O)OCC1(C)O` (centres undefined) as the compound, how does the T/C (dose: 62.5 mg/kg/injection, schedule: Q01DX009 (ip), vehicle: saline) read?
A: 104 % of control

Q: And the T/C (dose: 125.0 mg/kg/injection, schedule: Q01DX009 (ip), vehicle: saline)?
A: 104 % of control

Q: For `CC1(C)N=C(N)N=C(N)N1c1ccc(OCCCOc2ccc(S(=O)(=O)F)cc2)c(Cl)c1`, which T/C [10] is on record?
A: 120 % of control

Q: And the T/C [11]?
A: 115 % of control

Q: How did the T/C (dose: 266.0 mg/kg/injection, schedule: Q01DX009 (ip), vehicle: Klucel (hydroxypropylcellulose) (HPC)) turn out when `Cc1ccc(NCC2(/N=C/c3ccccc3)OC(CO)C(O)C2O)cc1` (centres undefined) was run?
A: 150 % of control and 157 % of control

Q: And the T/C (dose: 400.0 mg/kg/injection, schedule: Q01DX009 (ip), vehicle: Klucel (hydroxypropylcellulose) (HPC))?
A: 170 % of control and 176 % of control

Q: With `CN=C(N)N/N=C(/C)c1cc2ccccc2c2ccccc12` as the compound, how does the T/C (dose: 25.0 mg/kg/injection, schedule: Q04DX002 (ip), vehicle: saline with Tween-80) read?
A: 95 % of control

Q: What about the T/C (dose: 50.0 mg/kg/injection, schedule: Q04DX002 (ip), vehicle: saline with Tween-80) of the same compound?
A: 101 % of control

Q: What about the T/C (dose: 100.0 mg/kg/injection, schedule: Q04DX002 (ip), vehicle: saline with Tween-80) of the same compound?
A: 102 % of control

Q: What does the source list for `O=C(O)c1ccc2ccccc2n1`?
A: T/C (dose: 100.0 mg/kg/injection, schedule: Q04DX002 (ip), vehicle: saline): 96 % of control; T/C (dose: 200.0 mg/kg/injection, schedule: Q04DX002 (ip), vehicle: saline): 94 % of control; T/C (dose: 400.0 mg/kg/injection, schedule: Q04DX002 (ip), vehicle: saline): 104 % of control

Q: Which T/C [4] does the source give for `COc1ccc(NC(=S)Nc2ccc(S(=O)(=O)N3CCCCC3)cc2)cc1` here?
A: 94 % of control

Q: And the T/C [5]?
A: 94 % of control and 95 % of control

Q: And the T/C [6]?
A: 98 % of control

Q: What does the source list for `COC(=O)CCSC(=S)Nc1ccc(Br)cc1`?
A: T/C [7]: 100 % of control; T/C [8]: 100 % of control; T/C [9]: 102 % of control

Q: Which results are given for `COc1ccc2c(c1)[C@@]13CCCC[C@H]1[C@@H](C2)[N+](CC1CC1)=CC3=NO`?
A: T/C [7]: 111 % of control; T/C [8]: 102 % of control; T/C [9]: 105 % of control

Q: For `COC(=O)C/C(C(=O)OC)=C1\CCC2=C1N1CCCC1C2(CC(=O)OC)C(=O)OC` (centres undefined), which T/C (dose: 12.5 mg/kg/injection, schedule: Q01DX001 (ip), vehicle: Klucel (hydroxypropylcellulose) (HPC)) is on record?
A: 100 % of control

Q: And the T/C (dose: 25.0 mg/kg/injection, schedule: Q01DX001 (ip), vehicle: Klucel (hydroxypropylcellulose) (HPC))?
A: 99 % of control

Q: And the T/C (dose: 50.0 mg/kg/injection, schedule: Q01DX001 (ip), vehicle: Klucel (hydroxypropylcellulose) (HPC))?
A: 99 % of control

Q: What does the source list for `CC[C@@H]1O[C@H]2O[C@@H](/C=C/C=C/C=C/c3oc(=O)cc(OC)c3C)[C@@H](O)[C@@]2(C)[C@]1(C)O`?
A: T/C (dose: 0.5 mg/kg/injection, schedule: Q01DX009 (ip), vehicle: Klucel (hydroxypropylcellulose) (HPC)): 107 % of control; T/C (dose: 1.0 mg/kg/injection, schedule: Q01DX009 (ip), vehicle: Klucel (hydroxypropylcellulose) (HPC)): 106 % of control; T/C (dose: 2.0 mg/kg/injection, schedule: Q01DX009 (ip), vehicle: Klucel (hydroxypropylcellulose) (HPC)): 98 % of control

Q: With `COc1nc(NC2OC(COC(C)=O)C(OC(C)=O)C(OC(C)=O)C2OC(C)=O)c2c(O)coc2n1` (centres undefined) as the compound, how does the T/C (dose: 100.0 mg/kg/injection, schedule: Q01DX001 (ip), vehicle: saline with Tween-80) read?
A: 115 % of control

Q: What about the T/C (dose: 200.0 mg/kg/injection, schedule: Q01DX001 (ip), vehicle: saline with Tween-80) of the same compound?
A: 106 % of control

Q: And the T/C (dose: 400.0 mg/kg/injection, schedule: Q01DX001 (ip), vehicle: saline with Tween-80)?
A: 92 % of control

Q: How did the T/C (dose: 50.0 mg/kg/injection, schedule: Q01DX005 (ip), vehicle: saline with Tween-80) turn out when `CSCCC(NC(=O)C(Cc1ccccc1)NC(=O)CNC(=O)CNC(=O)C(N)Cc1ccc(O)cc1)C(=O)O` (centres undefined) was run?
A: 101 % of control

Q: What about the T/C (dose: 100.0 mg/kg/injection, schedule: Q01DX005 (ip), vehicle: saline with Tween-80) of the same compound?
A: 92 % of control

Q: What about the T/C (dose: 200.0 mg/kg/injection, schedule: Q01DX005 (ip), vehicle: saline with Tween-80) of the same compound?
A: 92 % of control

Q: What does the source list for `CS(=O)(=O)[O][Sn]([CH3])([CH3])[O]S(C)(=O)=O`?
A: T/C (dose: 6.25 mg/kg/injection, schedule: Q04DX003 (ip), vehicle: saline): 104 % of control; T/C [10]: 109 % of control; T/C [11]: 110 % of control

Q: Which T/C (dose: 60.0 mg/kg/injection, schedule: Q01DX005 (ip), vehicle: Klucel (hydroxypropylcellulose) (HPC)) does the source give for `CN(C)C(=O)N1OC(CN)CC1=O` (centres undefined) here?
A: 105 % of control

Q: And the T/C (dose: 120.0 mg/kg/injection, schedule: Q01DX005 (ip), vehicle: Klucel (hydroxypropylcellulose) (HPC))?
A: 104 % of control

Q: What about the T/C (dose: 240.0 mg/kg/injection, schedule: Q01DX005 (ip), vehicle: Klucel (hydroxypropylcellulose) (HPC)) of the same compound?
A: 105 % of control

Q: For `Cc1ccc2c(c1)-c1[nH]c3ccccc3c1CS2`, which T/C (dose: 100.0 mg/kg/injection, schedule: Q04DX003 (ip), vehicle: Klucel (hydroxypropylcellulose) (HPC)) is on record?
A: 104 % of control

Q: And the T/C (dose: 200.0 mg/kg/injection, schedule: Q04DX003 (ip), vehicle: Klucel (hydroxypropylcellulose) (HPC))?
A: 115 % of control

Q: Which results are given for `CCOC(=O)/C(C#N)=C/NCCc1c[nH]c2ccccc12`?
A: T/C [7]: 102 % of control; T/C [8]: 103 % of control; T/C [9]: 94 % of control

Q: Which results are given for `Cc1oc(N)c(C(N)=O)c1C`?
A: T/C (dose: 100.0 mg/kg/injection, schedule: Q01DX009 (ip), vehicle: saline sonified): 115 % of control; T/C (dose: 200.0 mg/kg/injection, schedule: Q01DX009 (ip), vehicle: saline sonified): 110 % of control; T/C (dose: 400.0 mg/kg/injection, schedule: Q01DX009 (ip), vehicle: saline sonified): 115 % of control

Q: Which T/C (dose: 25.0 mg/kg/injection, schedule: Q01DX009 (ip), vehicle: suspension in saline) does the source give for `O=C(O)C1Cc2c([nH]c3ccccc23)C(CO)N1` (centres undefined) here?
A: 107 % of control

Q: What about the T/C (dose: 50.0 mg/kg/injection, schedule: Q01DX009 (ip), vehicle: suspension in saline) of the same compound?
A: 104 % of control

Q: For `c1ccc2c(c1)Nc1ncccc1S2`, which T/C [1] is on record?
A: 99 % of control and 94 % of control

Q: What about the T/C [2] of the same compound?
A: 92 % of control and 95 % of control

Q: What about the T/C [3] of the same compound?
A: 107 % of control and 92 % of control

Q: What about the T/C (dose: 400.0 mg/kg/injection, schedule: Q01DX009 (ip), vehicle: saline with Tween-80) of the same compound?
A: 108 % of control

Q: Which T/C (dose: 60.0 mg/kg/injection, schedule: Q01DX005 (ip), vehicle: saline with Tween-80) does the source give for `COc1ccc2c(c1)CCC1OC(c3cccnc3)OC21` (centres undefined) here?
A: 99 % of control

Q: And the T/C (dose: 120.0 mg/kg/injection, schedule: Q01DX005 (ip), vehicle: saline with Tween-80)?
A: 99 % of control

Q: What about the T/C (dose: 240.0 mg/kg/injection, schedule: Q01DX005 (ip), vehicle: saline with Tween-80) of the same compound?
A: 97 % of control

Q: Which T/C (dose: 12.5 mg/kg/injection, schedule: Q01DX001 (ip), vehicle: saline with Tween-80) does the source give for `O=C(N/N=C/c1cc(Br)cc(Br)c1[O-])c1ccccc1.O=C(N/N=C/c1cc(Br)cc(Br)c1[O-])c1ccccc1.[Cu+2]` here?
A: 91 % of control

Q: What about the T/C (dose: 25.0 mg/kg/injection, schedule: Q01DX001 (ip), vehicle: saline with Tween-80) of the same compound?
A: 89 % of control

Q: What about the T/C (dose: 50.0 mg/kg/injection, schedule: Q01DX001 (ip), vehicle: saline with Tween-80) of the same compound?
A: 100 % of control
